# Data: patent US11366101B1, “Ex vivo systems and methods for determining the effect of a drug or other agent on a tissue” (Elephas Biosciences Corporation, priority 2020, dated 2022)
# Legend:
# [1] = tested on: live tumor fragment; test: Diffusion of a small molecule drug and an antibody into a live tumor fragment (fluorescence imaging); format: in vitro ADME; conditions: live tumor fragment cultured at 37° C., time after addition
# Method: Notable was gradual appearance of doxorubicin-characteristic fluorescence first in the periphery of tissue fragment at 15 minutes followed by full-thickness staining of the entire fragment area at 2 hours. […] Notable is plateau staining within about 5 h. As noted by this experiment, both small molecule drugs and large antibodies diffused into the live tissue fragments.
# [2] = tested on: EMT6 tumor fragments; test: NAD(P)H intensity multiphoton microscopy versus propidium iodide viability ground truth in cultured tumor fragments; format: cell-based, mouse; conditions: after 24 h, treated versus untreated
# Method: Live EMT6 tumors were cut into tissue fragments that were then sorted and cultured in glass-bottomed multi-well plates. To induce cancer cell death, one group was treated with the multi-kinase inhibitor, staurosporine (STS), and the control group was untreated. After 24 h, the structure and metabolic status of tumor fragments were imaged based on the intrinsically fluorescent metabolic co-factor nicotinamide dinucleotides (NAD(P)H) fluorescence intensity using multiphoton microscopy with 720 nm excitation. […] For structural reference, the second harmonic generation was also imaged (blue).
# [3] = tested on: EMT6 tumor fragments; test: Label-free MP-FLIM of NAD(P)H fluorescence lifetime in cultured tumor fragments; format: cell-based, mouse; conditions: 24 hours of exposure vs 0 h, p<0.002
# Method: Live EMT6 tumors were cut into tissue fragments that were then sorted and cultured in glass-bottomed multi-well plates. To induce cancer cell death, one group was treated with the multi-kinase inhibitor, staurosporine (STS), and the control group was treated with the vehicle (Veh). Before (0 h) and after treatment (24 h), the structure and metabolic status of tumor fragments were imaged based on the intrinsically fluorescent metabolic co-factor nicotinamide dinucleotides (NAD(P)H) fluorescence intensity and lifetime using MP-FLIM by time-correlated single photon counting. The data was analyzed by fitting fluorescence decay curves with dual exponents. […] Each dot represents one fragment.
# [4] = tested on: CT26 tumor fragments; test: Supernatant cytokines of live tumor fragments by LEGENDPlex bead immunoassay, mouse; format: cell-based; conditions: mouse specimens, cultured 48 or 72 h
# Method: (§1) Human tumor excisions were obtained from the University of Wisconsin (Institutional Review Board (IRB) approved) and CT26 tumors were grown in mice. Tumor excisions were cut into […] live tumor fragments of 100-300 μm thickness, sorted into multi-well plates, and cultured for 48 or 72 h in the presence or absence of anti-PD1 (nivolumab or mouse equivalent), anti-PD1 plus anti-CTLA4 (ipilimumab or mouse equivalent), or concanavalin A (ConA) as a positive control. Cell viability was ascertained by ATP luminescence assay or flow cytometry (not shown). Supernatant cytokines were measured using LEGENDPlex bead immunoassay. […] The presence of cytokines was greater in wells with 10 fragments than in wells with 3 fragments, indicating suitability of culture conditions.
# [5] = tested on: human live tumor fragments; test: Supernatant cytokines of live tumor fragments by LEGENDPlex bead immunoassay, human; format: cell-based; conditions: cultured 48 or 72 h; for presence of IFN-γ and cytokines associated with immune activation relative to the untreated control: human samples
# Method: as §1
compound,measurement,setting,value
COc1cccc2c1C(=O)c1c(O)c3c(c(O)c1C2=O)C[C@@](O)(C(=O)CO)C[C@@H]3O[C@H]1C[C@H](N)[C@H](O)[C@H](C)O1 [doxorubicin],appearance of doxorubicin-characteristic fluorescence in the periphery of tissue fragment,[1],15 min
same,full-thickness staining of the entire fragment area,[1],2 h
CN[C@@H]1C[C@H]2O[C@@](C)([C@@H]1OC)n1c3ccccc3c3c4c(c5c6ccccc6n2c5c31)C(=O)NC4 [staurosporine],PI-stained nuclei (dead cells),[2],increased numbers of PI-stained nuclei
same,NAD(P)H intensity,[2]; 720 nm excitation,loss of NAD(P)H intensity
same,NAD(P)H short lifetime component (a1),[3],concomitant decrease
same,whole fragment NAD(P)H mean lifetime (tm),[3],statistically significant increase
anti-PD1: immunotherapy drug anti-PD1 (nivolumab or mouse equivalent),"presence of IFN-γ and cytokines associated with immune activation, fold increase in relation to the untreated control",[4],greater presence of IFN-γ and 10 cytokines
same,"cytokine panel upregulation, fold increase relative to untreated control",[5]; human LTFs,cytokine panel upregulation was observed
same,presence of IFN-γ and cytokines associated with immune activation relative to the untreated control,[5],greater presence of IFN-γ and 16 cytokines
concanavalin A [ConA],presence of IFN-γ and cytokines associated with immune activation relative to the untreated control,[5],greater presence of IFN-γ and 16 cytokines
